Assay results published in patent publication US5462861A, “Method for improving enzyme activities with noble gases” (American Air Liquide, Chicago Research Center, priority 1993, dated 1995).

How the values were obtained:
[1] = test system: lyase enzymes; experiment: Lyases, effects for the class; type: biochemical
Experimental: (§1) Solution preparation: Optimized w/v solutions are prepared by diluting the enzyme (units/ml) and the substrate (μg/ml) in appropriate buffer (optimized pH and molarity for enzymes). The solutions are used for gas experiments at once to avoid loss of activity. Various enzyme and substrate concentrations and inhibitors may be employed. Physical parameters are varied as required.
(§2) Preparation of samples: Cuvets are filled with 2 ml of substrate solution by means of a gas-tight syringe. Gas-tight serum vials are filled with enzyme and solvent. Sufficient gas is consecutively bubbled in the cuvets and serum vials, with a 1-hr wait between injections to maximize equilibration of gas. […] The amount of gas used has been measured sufficient to saturate the solution required.
(§3) Spectrophotometric time-drive, reaction rate, and kinetic analyses: cuvets and serum vials are saturated with gas 40 minutes before the run. […] Changes in the rate or final equilibrium of the reaction versus ambient air are recorded. […]
(§4) In a complete experiment, an enzyme at optimal pH and buffering salt concentration is reacted with 5 substrate concentrations in solution with noble gas at 1 atm. […] The reaction is monitored colorimetrically in a scanning spectrophotometer in real time, and the signals are treated mathematically to obtain rate and yield differences. […]

[2] = test system: isomerase enzymes; experiment: Isomerases, effects for the class; type: biochemical
Experimental: as §1, §2, §3, §4

[3] = test system: transferase enzymes; experiment: Transferases, effects for the class; type: biochemical
Experimental: as §1, §2, §3, §4

[4] = test system: β-glucosidase; experiment: Kinetic analyses, β-glucosidase; type: biochemical; parameters: Rates G5 / Rates G5, Calculated: unit not given beside the values
Experimental: (§5) Absorbance curve data as previously exemplified reveal differences in enzymatic activity under different gas atmospheres both in terms of yield and in terms of rate. Yield can be calculated after equilibrium is reached by comparative curve differencing, and through formal linearization and calculation--which are also necessary for rate calculations. Rate differences are calculated using commercially available computer programs (ENZFITTER, GRAFIT, ENZPACK, PEAKFIT) which transform the initial uv/vis absorbance data curve (in these examples, a power curve) into straight lines (linear regression of power curve). These lines may be expressed as a mathematical equation in which the slope is approximately the rate, and the limit Y-intercept is approximately the yield. […] The examples and figures described below represent these steps in exemplary form.
Table 1 illustrates Michaelis-Menten enzyme kinetics calculations of Vmax and Km, and the rates for each reaction. Vmax is the limiting rate, Km is the Michaelis-Menten constant.
FIG. 46 and Table 2 illustrate the same as FIG. 45 and Table 1, however, for xenon reactions. It is readily apparent that the Vmax and Km for xenon are larger.
FIG. 47, Table 3, FIG. 48 and Table 4 illustrate the first-order power curve regression rate linear transformations for the above air and xenon gassed reactions, showing an approximation to the Michaelis-Menten data, wherein the Xe/Air rate relationship is in the same ratio as above.
FIG. 49, FIG. 50 and Table 5 illustrate the same first-order rate approximation regression linearizations for all gases studied in this run.

[5] = test system: tyrosinase; experiment: Kinetic analyses, tyrosinase; type: biochemical
Experimental: as §5
FIG. 51, Table 6, FIG. 52 and Table 7 illustrate data from the first 160 seconds of a single tyrosinase experiment expressed as power curves for air, then for xenon gassing.

[6] = target: T1, β-D-Glucosidase (Caldicellulosiruptor saccharolyticus, UniProt P10482); experiment: Immobilized enzymes: β-D-glucosidase under air or xenon; type: biochemical, Caldocellum saccharolyticum; settings: 25° C., FIG. 44
T1 construct: purchased Sigma G-0898; host or cells: E. coli
T1 sequence (P10482 whole entry): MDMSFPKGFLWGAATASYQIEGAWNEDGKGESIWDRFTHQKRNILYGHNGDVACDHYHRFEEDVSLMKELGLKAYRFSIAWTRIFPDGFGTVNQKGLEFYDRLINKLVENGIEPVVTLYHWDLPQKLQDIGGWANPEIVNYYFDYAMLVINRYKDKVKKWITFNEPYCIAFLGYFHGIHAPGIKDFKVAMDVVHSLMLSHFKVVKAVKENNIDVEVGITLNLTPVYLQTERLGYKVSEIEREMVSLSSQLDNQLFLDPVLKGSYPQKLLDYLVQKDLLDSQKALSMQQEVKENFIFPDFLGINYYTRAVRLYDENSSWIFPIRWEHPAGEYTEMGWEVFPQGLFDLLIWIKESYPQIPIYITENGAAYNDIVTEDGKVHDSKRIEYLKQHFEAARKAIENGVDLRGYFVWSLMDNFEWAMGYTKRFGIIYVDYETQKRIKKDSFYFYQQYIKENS
Experimental: Theory: Same gases effects on either free or immobilized enzymes.
β-D-Glucosidase (SIGMA) No. G-0898)
From Caldocellum saccharolyticum: Recombinant (pfs)
Soln C1: β-D-Glucosidase solution in Na Phos. buffer pH 6.6 (25 ° C.) (2.18 Units/ml)
(For insoluble enzymes lyophilized powders, SIGMA recommends to suspend the required amount to 5-10 mg solid/ml H2 O and to allow brief hydration). We allowed a brief hydration (until solution appears)
Sample: 2 ml Soln B+0.5 ml Soln C1
CPRG: β-Glucosidase: 25° C.

[7] = test system: particulate sialidase; settings: Sandhoff et al, FEBS Letters 1976; cited from earlier work
[8] = 1st order rate equation, [S] = 60 micrograms/ml, Table 4

[Ar] [Ar, argon]
effect on lyases [1]: least such effect
effect on isomerases [2]: can be induced to inhibit enzyme activity at higher temperatures

[Kr] [Kr, krypton]
effect on transferases [3]: largest inhibitory or effect

[Ne] [Ne, neon]
effect on transferases [3]: lowest inhibitory or enhancing effect

[Xe] [Xe, xenon]
Vmax and Km compared with air [4]: larger
Limit [4, 8]: 0.8382
Rate constant [4, 8]: 0.0045
V max ([4]; Michaelis-Menten, Gas 5: Xenon, Table 2): 0.0028
Rates G5 ([4]; [S] 20.0000): 0.0032
Rates G5, Calculated ([4]; [S] 20.0000): 0.0032
Rates G5 ([4]; [S] 40.0000): 0.0029
Rates G5, Calculated ([4]; [S] 40.0000): 0.0029
Rates G5 ([4]; [S] 60.0000): 0.0027
Rates G5, Calculated ([4]; [S] 60.0000): 0.0029
Rates G5 ([4]; [S] 80.0000): 0.0030
Rates G5, Calculated ([4]; [S] 80.0000): 0.0029
Rates G5 ([4]; [S] 100.0000): 0.0029
Rates G5, Calculated ([4]; [S] 100.0000): 0.0028
effect on β-glucosidase reaction ([4]; power curve analysis / linearization, FIGS. 49 and 50): significant enhancement
V max ([5]; Michaelis-Menten, Gas 5: Xenon, Table 7, first 160 seconds): 0.0001
Y, Calculated ([5]; [S] 10.0000): -0.0001
Y, Gas 5: Xenon (rate) ([5]; [S] 10.0000): 0.0007
Y, Calculated ([5]; [S] 20.0000): -0.0003
Y, Gas 5: Xenon (rate) ([5]; [S] 20.0000): 0.0019
Y, Calculated ([5]; [S] 30.0000): 0.0017
Y, Gas 5: Xenon (rate) ([5]; [S] 30.0000): 0.0019
Y, Calculated ([5]; [S] 40.0000): 0.0004
Y, Gas 5: Xenon (rate) ([5]; [S] 40.0000): 0.0019
Y, Calculated ([5]; [S] 50.0000): 0.0003
Y, Gas 5: Xenon (rate) ([5]; [S] 50.0000): 0.0004
effect on tyrosinase activity ([5]; linearized rate regression and Michaelis-Menten calculations): strongly inhibiting tyrosinase activity
effect on β-glucosidase in immobilized form [6]: enhancing
effect on lyases [1]: largest enhancing effect
effect on activity of particulate sialidase [7]: enhance the activity
